Experiment: xn = mol fraction of the nth substance listed
Settings: Liquid

CO [methanol] + O
excess molar volume [m3/mol]
Settings	298.15 K	323.15 K	348.15 K	373.15 K	398.15 K	423.15 K	448.15 K	473.15 K	498.15 K	523.15 K
100 kPa, x1 = 0.25	-7.42e-07	-7.75e-07	–	–	–	–	–	–	–	–
100 kPa, x1 = 0.5	-1.014e-06	-1.049e-06	–	–	–	–	–	–	–	–
100 kPa, x1 = 0.75	-7.05e-07	-7.38e-07	–	–	–	–	–	–	–	–
5000 kPa, x1 = 0.25	-7.13e-07	-7.41e-07	-7.75e-07	-8.26e-07	-8.9e-07	-9.81e-07	-1.223e-06	-1.902e-06	–	–
5000 kPa, x1 = 0.5	-9.63e-07	-9.91e-07	-1.022e-06	-1.082e-06	-1.146e-06	-1.247e-06	-1.583e-06	-2.545e-06	–	–
5000 kPa, x1 = 0.75	-6.74e-07	-7.02e-07	-7.58e-07	-8.14e-07	-8.68e-07	-9.59e-07	-1.163e-06	-1.736e-06	–	–
10000 kPa, x1 = 0.25	-6.85e-07	-7.07e-07	-7.33e-07	-7.67e-07	-8.12e-07	-8.74e-07	-9.78e-07	-1.285e-06	-2.081e-06	–
10000 kPa, x1 = 0.5	-9.15e-07	-9.36e-07	-9.61e-07	-9.85e-07	-1.017e-06	-1.072e-06	-1.246e-06	-1.616e-06	-2.481e-06	–
10000 kPa, x1 = 0.75	-6.44e-07	-6.7e-07	-7.12e-07	-7.46e-07	-7.89e-07	-8.43e-07	-9.16e-07	-1.12e-06	-1.949e-06	–
20000 kPa, x1 = 0.25	-6.27e-07	-6.4e-07	-6.5e-07	-6.6e-07	-6.68e-07	-6.78e-07	-7.11e-07	-8e-07	-8.98e-07	-1.217e-06
20000 kPa, x1 = 0.5	-8.31e-07	-8.38e-07	-8.45e-07	-8.51e-07	-8.57e-07	-8.64e-07	-8.73e-07	-8.91e-07	-9.52e-07	-1.421e-06
20000 kPa, x1 = 0.75	-5.93e-07	-6.05e-07	-6.23e-07	-6.44e-07	-6.56e-07	-6.65e-07	-6.88e-07	-7.38e-07	-8.16e-07	-1.204e-06
30000 kPa, x1 = 0.25	-5.75e-07	-5.74e-07	-5.73e-07	-5.71e-07	-5.68e-07	-5.65e-07	-5.62e-07	-5.58e-07	-5.54e-07	-5.47e-07
30000 kPa, x1 = 0.5	-7.62e-07	-7.51e-07	-7.38e-07	-7.26e-07	-7.09e-07	-6.92e-07	-6.64e-07	-6.29e-07	-5.87e-07	-5.46e-07
30000 kPa, x1 = 0.75	-5.53e-07	-5.49e-07	-5.37e-07	-5.28e-07	-5.19e-07	-5.12e-07	-4.93e-07	-4.65e-07	-4.28e-07	-3.91e-07
40000 kPa, x1 = 0.25	-5.29e-07	-5.2e-07	-5.12e-07	-5.07e-07	-4.94e-07	-4.81e-07	-4.64e-07	-4.41e-07	-4.12e-07	-3.76e-07
40000 kPa, x1 = 0.5	-7.02e-07	-6.85e-07	-6.67e-07	-6.47e-07	-6.14e-07	-5.71e-07	-5.13e-07	-4.66e-07	-4.01e-07	-3.36e-07
40000 kPa, x1 = 0.75	-5.14e-07	-5.02e-07	-4.81e-07	-4.58e-07	-4.35e-07	-4.2e-07	-3.86e-07	-3.3e-07	-2.7e-07	-2.01e-07
50000 kPa, x1 = 0.25	-4.85e-07	-4.75e-07	-4.64e-07	-4.52e-07	-4.33e-07	-4.13e-07	-3.89e-07	-3.59e-07	-3.26e-07	-2.77e-07
50000 kPa, x1 = 0.5	-6.49e-07	-6.32e-07	-6.06e-07	-5.81e-07	-5.37e-07	-4.75e-07	-4.04e-07	-3.42e-07	-2.68e-07	-1.97e-07
50000 kPa, x1 = 0.75	-4.65e-07	-4.55e-07	-4.4e-07	-4.14e-07	-3.8e-07	-3.49e-07	-3e-07	-2.37e-07	-1.6e-07	-8.4e-08
60000 kPa, x1 = 0.25	-4.61e-07	-4.39e-07	-4.23e-07	-4.05e-07	-3.83e-07	-3.56e-07	-3.27e-07	-2.9e-07	-2.45e-07	-1.86e-07
60000 kPa, x1 = 0.5	-6.02e-07	-5.84e-07	-5.58e-07	-5.21e-07	-4.75e-07	-4.01e-07	-3.18e-07	-2.41e-07	-1.61e-07	-8.4e-08
60000 kPa, x1 = 0.75	–	-4.28e-07	-4.06e-07	-3.72e-07	-3.33e-07	-2.84e-07	-2.23e-07	-1.58e-07	-8.4e-08	-5e-09

Reference: the NIST ThermoML archive (doi:10.1016/j.jct.2004.03.011)
